Values of other authors in patent US20250228797A1, “SYNERGIC AND STABLE PHARMACEUTICAL COMPOSITION OF AN NSAID AND AN OPIOID ANALGESIC FOR PAIN AND INFLAMMATION” (LABORATORIOS SILANES, S.A. DE C.V., priority 2024, published 2025).

Tests used:
[1] = tested on: moderate to severe post-operatory pain; details: intravenous or intramuscular
[2] = in vivo

Question: What does the source list for COc1cccc([C@@]2(O)CCCC[C@@H]2CN(C)C)c1 [tramadol, (1R,2R)-2-[(dimethylamino)methyl]-1-(3-methoxyphenyl)cyclohexan-1-ol]?
Answer: Analgesic potency relative to nalbuphine [1]: one-fifth; Analgesic potency relative to pethidine (meperidine) [1]: equivalent; Incidence of serious adverse reactions [2]: less than 1%
